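Dose response: 5 concentrations. Exposure: 48 h. Format: 96-well plates. Endpoint: linear interpolation; highest concentration if not reached. GI50 = concentration required for 50% inhibition of growth. TGI denotes the concentration required for complete inhibition of growth.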 Where a SMILES comes first, the peptide text is derived from it. [ ]: non-standard residue; d: D form. The star is where a group is joined. Octanoyl = CCCCCCCC(=O)*; Aib = CC(C)(N)C(=O)O; tBu = CC(C)(C)*
How the values were obtained:
Experiment in all cases: NCI anticancer screen, dose series, 48 h
SW-620 colon = system: SW-620 colon
DMS 273 small cell lung = system: DMS 273 small cell lung
MDA-MB-435 = system: MDA-MB-435
BT-549 breast = system: BT-549 breast
EKVX NSCLC = system: EKVX NSCLC
IGROV1 ovarian = system: IGROV1 ovarian
M14 melanoma = system: M14 melanoma
TK-10 renal = system: TK-10 renal
KM12 colon = system: KM12 colon
K-562 leukemia = system: K-562 leukemia
DLD-1 colon = system: DLD-1 colon
MDA-MB-231 breast = system: MDA-MB-231 breast
A498 renal = system: A498 renal
SR leukemia = system: SR leukemia
LXFL 529 NSCLC = system: LXFL 529 NSCLC

Row | Structure (SMILES) | TGI (SW-620 colon) [µM] | GI50 (DMS 273 small cell lung) [µM] | TGI (DMS 273 small cell lung) [µM] | TGI (MDA-MB-435) [µM] | TGI (BT-549 breast) [µM] | TGI (EKVX NSCLC) [µM] | TGI (IGROV1 ovarian) [µM] | TGI (M14 melanoma) [µM] | TGI (TK-10 renal) [µM] | TGI (KM12 colon) [µM] | TGI (K-562 leukemia) [µM] | GI50 (DLD-1 colon) [µM] | TGI (DLD-1 colon) [µM] | TGI (MDA-MB-231 breast) [µM] | TGI (A498 renal) [µM] | TGI (SR leukemia) [µM] | TGI (LXFL 529 NSCLC) [µM]
1 | O=[N+]([O-])O.[Ga] | > 10000 | 470 | 6900 | > 10000 | > 4640 | 5620 | > 7220 | > 10000 | > 7990 | > 10000 | > 8480 | 3500 | > 10000 | > 10000 | 2590 | > 10000 | –
2 | CC(C)n1c2c([n+](C)c1/C=C/c1ccccc1)C(=O)c1ccccc1C2=O | 1.21 | – | 0.341 | 0.547 | 0.667 | 1.25 | 0.0688 | 1.08 | 2.39 | 0.975 | 9.61 | – | 3.79 | 0.884 | 2.76 | > 21 | 0.788
3 | COc1ccc([C@H]2CC(=O)NCCCCN2)cc1 | – | – | > 100 | – | – | > 100 | > 100 | > 100 | > 100 | > 100 | > 100 | – | > 100 | – | > 100 | > 100 | > 100
4 | CC(=O)O[C@H]1C(=O)[C@@]2(C)C(C(OC(=O)c3ccccc3)[C@]3(O)CC(OC(=O)C(O)C(NC(=O)c4ccc(C)cc4)c4ccccc4)C(C)=C1C3(C)C)[C@]1(OC(C)=O)CO[C@@H]1C[C@@H]2O (some centres undefined) | – | – | 3.25 | – | – | > 25 | 0.101 | – | 9.47 | 19.8 | 5.77 | – | 15.4 | – | 14.1 | – | > 25
5 | O=C(O)CC/C(=N\Nc1nsc2ccccc12)c1ccc(Cl)cc1 | > 87.8 | – | 41.2 | 75.3 | 74.3 | > 100 | > 100 | > 65.8 | > 67.6 | > 100 | > 100 | – | – | 93.2 | 99.4 | – | 41.1
6 | COP1(=O)Oc2ccccc2C(=O)C(C(F)(F)F)(C(F)(F)F)O1 (centres undefined) | > 100 | – | > 100 | – | – | > 100 | > 100 | > 100 | > 100 | > 100 | > 100 | – | > 100 | – | > 100 | > 100 | > 100
7 | CC(C)OP(=O)(OC(C)C)C(=Nc1ccccc1)NNc1ccc([N+](=O)[O-])cc1 | > 100 | – | 59 | – | – | > 100 | – | 41.4 | 46.2 | 43.6 | > 100 | – | > 100 | – | – | 43.4 | > 100
8 | N#CC1=C(N)OC(c2ccc([N+](=O)[O-])cc2)C1(C#N)C#N (centres undefined) | 33.9 | – | – | > 50.4 | 33.1 | 39.6 | 31.1 | 38.9 | 26.7 | > 48.4 | > 100 | – | – | 30.4 | 27.8 | 41.7 | –
9 | CN(C)c1ccc(/C=C(\NC(=O)c2ccccc2)C2NC(Cc3c[nH]c4ccccc34)C(=O)O2)cc1 (centres undefined) | > 100 | – | – | > 100 | > 45.2 | > 100 | > 100 | > 100 | > 38.7 | > 100 | > 100 | – | – | > 100 | > 100 | > 100 | –
10 | O=c1oc2ccc3ccccc3c2cc1-c1nc2ccccc2o1 | 55.1 | – | – | > 60.6 | > 61.4 | > 56.2 | 30 | > 56 | > 100 | > 63.2 | > 100 | – | – | 35.6 | > 77.5 | > 85.6 | –
11 | CCCCCCCC(=O)NC(C)(C)C(=O)NC(COC(C)(C)C)C(=O)NC(CC(C)C)C(=O)NC(C)(C)C(=O)NC(COC(C)(C)C)C(=O)NC(COC(C)(C)C)C(=O)NC(CC(C)C)C(=O)NC(C)(C)C(=O)NC(COC(C)(C)C)C(=O)NC(C(=O)NC(CC(C)C)C(=O)OC)C(C)CC (centres undefined) (Octanoyl-[Aib]S(tBu)L[Aib]S(tBu)S(tBu)L[Aib]S(tBu)IL-OMe; configuration not given here) | > 25 | – | – | > 25 | 13.1 | 16.3 | 12.5 | > 25 | 21.8 | 22 | > 25 | – | – | 15.9 | 14 | 17.9 | –

Reference: PubChem BioAssay (NCI)
